Laboratory results taken from patent US20250052985A1, “SYSTEM AND METHOD FOR QUANTITATIVE PHASE IMAGING FOR MULTI-PARAMETRIC SCREENING OF TUMOR THERAPY RESPONSE” (UNIVERSITY OF UTAH RESEARCH FOUNDATION, priority 2023, published 2025).
Where “and” joins values, the source holds several entries; their conditions need not be identical. Equal entries are not always repeated. Where two headings read alike, the source gives them in different places.

Key:
BT-474 cells [1] = assay: cells; settings: for Max Asymptote / Min Asymptote: BT-474, 4-parameter Hill fit of mean SGR vs concentration, one line per replicate; for Hill Slope: BT-474, Hill fit; for EC50: Homo sapiens
Outline: (§1)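 EC50 comes from 4-parameter Hill fits of average specific growth rate (mass accumulation) versus dose; a response is called only when the fit beats a flat line by F-test at p<0.01. Growth was tracked by differential phase contrast QPI for 24 or 72 h post-equilibration, followed by CTG ATP readout.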

MCF-7 cells [2] = assay: cells; settings: for Hill Slope: MCF-7, Hill fit; for EC50: Homo sapiens
Outline: as §1

BT-474 cells [3] = assay: CellTiter-Glo (CTG) ATP viability assay, BT-474; assay type: cell-based; settings: for Min Asymptote: BT-474, Hill fit of luminescence normalized to solvent control, one line per replicate; for EC50: Homo sapiens
Outline: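 Cell viability was read as ATP content by CellTiter-Glo luminescence after replacing media with reagent, shaking 20 min and resting 10 min. Signal was normalized to solvent control, and a 4-parameter Hill fit to the dose response gave EC50 and depth of response.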

MCF-7 cells [4] = assay: CellTiter-Glo (CTG) ATP viability assay, MCF-7; assay type: cell-based; settings: for EC50: Homo sapiens
Procedure: (§2) CTG (e.g., read by the CTG reader 115) is a cell viability assay that quantifies the amount of ATP present at the end of an experiment as an indicator of the number of live cells. The electronic controller 155 measures ATP content in each condition as a readout by a luminescent signal, which is normalized by the luminescence of the control (e.g., a control well) to determine cell viability relative to on-plate controls. In some embodiments, the CTG assay is performed by first removing 100 μL of media from each well on the well-plate 105, which is then replaced with an equal amount of CellTiter-Glo reagent (e.g., Promega, G7572). Assayed plates may be shaken at 500 RPM for 20 minutes and allowed to rest for 10 minutes. In some instances, 100 μL of volume from each well is transferred to a white 96-well plate (e.g., Perkin Elmer, 6005680). The electronic controller 155 collects luminescence data from each well using an Envision plate reader (e.g., Perkin Elmer) and normalized against the solvent control to measure ATP content. The electronic controller 155 fits a 4-parameter hill curve to the dose response to determine the EC50 and depth of response.

MDA-MB-231 cells = assay: CellTiter-Glo (CTG) ATP viability assay, MDA-MB-231; assay type: cell-based; settings: for Min Asymptote: MDA-MB-231, Hill fit of luminescence normalized to solvent control, one line per replicate; for EC50: Homo sapiens
Procedure: as §2

[5] = 24 h QPI, MCF-7, 4-parameter Hill fit of mean SGR vs concentration, one line per replicate

CC[C@]1(O)C[C@@H]2CN(CCc3c([nH]c4ccccc34)[C@@](C(=O)OC)(c3cc4c(cc3OC)N(C)[C@H]3[C@@](O)(C(=O)OC)[C@H](OC(C)=O)[C@]5(CC)C=CCN6CC[C@]43[C@@H]65)C2)C1 [Vinblastine]
Max Asymptote (BT-474 cells [1]; 24 h QPI): 0.007582
Min Asymptote (BT-474 cells [1]; 24 h QPI): −0.004812
Hill Slope (BT-474 cells [1]; 24 h QPI): 0.4052
Max Asymptote (BT-474 cells [1]; 72 h QPI): −0.001678 and −0.002248
Min Asymptote (BT-474 cells [1]; 72 h QPI): 0.002895 and 0.003538
Hill Slope (BT-474 cells [1]; 72 h QPI): 2.4178 and 1.3815
growth rate and heterogeneity over time (BT-474 cells [1]; BT-474, 0.0016 μM): decrease in growth rate at constant heterogeneity that is greater than the control
growth rate and heterogeneity over time (BT-474 cells [1]; BT-474, 0.016 μM): decreased growth rate and increased heterogeneity
growth rate and heterogeneity over time (BT-474 cells [1]; BT-474, 0.4 μM): reduced growth rate at the same level of heterogeneity as the control
average growth rate over time (BT-474 cells [1]; BT-474, 20 μM): slowly decreases over 12-60 h of treatment
growth rate and heterogeneity over time (BT-474 cells [1]; BT-474, 20 μM): decreases, while the heterogeneity for both populations increases
change of population spread (SD) of SGR (BT-474 cells [1]; BT-474, 20 μM, with significant decrease in mean response): no significant change to the spread
response of growth rate and heterogeneity to treatment (BT-474 cells [1]; BT-474, FIG. 5E, 22, 23): both reduced growth rate and slightly increased heterogeneity
growth rate and heterogeneity as concentration increases (BT-474 cells [1]; BT-474, FIG. 22): decrease in growth rate as concentration increases while heterogeneity remains constant
DoR QPI (BT-474 cells [1]; BT-474 cell line, depth of response, QPI): 2.8
ToR 20 μM (BT-474 cells [1]; BT-474 cell line, time of response at 20 μM): 4.9
EC50 (BT-474 cells [1]; BT-474, 24 h, read-out: log10(EC50), 24 h QPI, BT-474, Hill fit (converted), EC50 in μM per Table 1): 48.8 µM
EC50 (BT-474 cells [1]; BT-474, read-out: EC50, QPI, BT-474 cell line, QPI growth rate): 14.9 µM
Max Asymptote (MCF-7 cells [2]; [5]): 0.01958
Min Asymptote (MCF-7 cells [2]; [5]): 0.005796
Hill Slope (MCF-7 cells [2]; 24 h QPI): 3.2016
Min Asymptote (MCF-7 cells [2]; 72 h QPI, MCF-7, 4-parameter Hill fit of mean SGR vs concentration, one line per replicate): 0.01979 and 0.02842 and 0.02817
Hill Slope (MCF-7 cells [2]; 72 h QPI): 0.3759 and 0.3808 and 0.4308
EC50 (MCF-7 cells [2]; MCF7, 24 h, read-out: log10(EC50), 24 h QPI, MCF-7, Hill fit (converted), EC50 in μM per Table 1): 0.00154 µM
EC50 (MCF-7 cells [2]; MCF7, read-out: EC50, QPI, MCF-7 cell line, QPI growth rate): 0.3 µM
DoR QPI (MCF-7 cells [2]; MCF-7 cell line, depth of response, QPI): 0.4
ToR 20 μM (MCF-7 cells [2]; MCF-7 cell line, time of response at 20 μM): −3.0
Hill Slope (BT-474 cells [3]; 24 h CTG, BT-474, Hill fit): 0.3445
Min Asymptote (BT-474 cells [3]; 24 h CTG): 0.5659
Hill Slope (BT-474 cells [3]; 72 h CTG, BT-474, Hill fit): 0.1
Min Asymptote (BT-474 cells [3]; 72 h CTG): 0.06356
DoR CTG (BT-474 cells [3]; BT-474 cell line, depth of response, CellTiter-Glo): 1.0
EC50 (BT-474 cells [3]; BT-474, 24 h, 24 h CTG, BT-474, Hill fit, read-out: log10(EC50) (converted)): 1.83 µM
EC50 (BT-474 cells [3]; BT-474, 72 h, 72 h CTG, BT-474, Hill fit, read-out: log10(EC50) (converted)): 0.00766 µM
EC50 (BT-474 cells [3]; BT-474, BT-474 cell line, CellTiter-Glo, read-out: EC50, CTG): 6.4 µM
Hill Slope (MCF-7 cells [4]; 72 h CTG, MCF-7, Hill fit): 0.2572 and 0.2217
log10(EC50) (MCF-7 cells [4]; 72 h CTG, MCF-7, Hill fit): 2.689
Min Asymptote (MCF-7 cells [4]; 72 h CTG, MCF-7, Hill fit of luminescence normalized to solvent control, one line per replicate): 4.32E−11 (2×) and 1.18E−11
EC50 (MCF-7 cells [4]; MCF7, 72 h, 72 h CTG, MCF-7, Hill fit, read-out: log10(EC50) (converted)): 0.00215 µM
EC50 (MCF-7 cells [4]; MCF7, MCF-7 cell line, CellTiter-Glo, read-out: EC50, CTG (converted)): 1.6 µM
DoR CTG (MCF-7 cells [4]; MCF-7 cell line, depth of response, CellTiter-Glo): 0.8
Hill Slope (MDA-MB-231 cells; 24 h CTG, MDA-MB-231, Hill fit): 0.3445
Min Asymptote (MDA-MB-231 cells; 24 h CTG): 0.5659
Min Asymptote (MDA-MB-231 cells; 72 h CTG): 0.06356 and 0.2911
EC50 (MDA-MB-231 cells; MDA-MB-231, 24 h, 24 h CTG, MDA-MB-231, Hill fit, read-out: log10(EC50) (converted)): 1.83 µM
EC50 (MDA-MB-231 cells; MDA-MB-231, MDA-MB-231 cell line, CellTiter-Glo, read-out: EC50, CTG): 3 µM
DoR CTG (MDA-MB-231 cells; MDA-MB-231 cell line, depth of response, CellTiter-Glo): 1.0
